Test results published in the NIST ThermoML archive (doi:10.1021/je900470r).
Numbers after ± are expanded uncertainties.

Assays:
[1] = Liquid; for mass density: 298.15 K, 101.33 kPa
[2] = refractive index (Na D-line) (dimensionless); conditions: 298.15 K; 101.33 kPa; Liquid; Standard Abbe refractometry

Compound	mass density [1]	vapor or sublimation pressure ([1]; 352.68 K)	refractive index [2]	vapor or sublimation pressure ([1]; 418.69 K)	vapor or sublimation pressure ([1]; 351.46 K)
CCC(C)=O [butanone]	799.62 ± 0.23 kg/m3	101.3 ± 0.2 kPa	1.3761 ± 0.0005		
CCCCOC(=O)CC [butyl propanoate]	870.88 ± 0.48 kg/m3		1.3992 ± 0.0005	101.3 ± 0.3 kPa	
CCO [ethanol]	786.47 ± 0.5 kg/m3		1.3594 ± 0.0005		101.3 ± 0.2 kPa
CC(C)O [propan-2-ol]	780.75 ± 0.24 kg/m3		1.3754 ± 0.0005		
